Laboratory results from publication PMC9309644, “Functional analysis of thermo-sensitive TRPV1 in an aquatic vertebrate, masu salmon (Oncorhynchus masou ishikawae)” (Biochemistry and Biophysics Reports, 2022).

Molecular target: T1, OmTRPV1 (Oncorhynchus masou, UniProt Z9PIN9CDR2)
T1 construct: cDNA cloned from spinal cord into pOX(+) via EcoRI/NotI; forward primer starts at ATG, reverse primer with stop codon; cRNA-injected Xenopus laevis oocytes; S487 and V525 correspond to mammalian S512 and T550
T1 sequence (Z9PIN9CDR2 1-804): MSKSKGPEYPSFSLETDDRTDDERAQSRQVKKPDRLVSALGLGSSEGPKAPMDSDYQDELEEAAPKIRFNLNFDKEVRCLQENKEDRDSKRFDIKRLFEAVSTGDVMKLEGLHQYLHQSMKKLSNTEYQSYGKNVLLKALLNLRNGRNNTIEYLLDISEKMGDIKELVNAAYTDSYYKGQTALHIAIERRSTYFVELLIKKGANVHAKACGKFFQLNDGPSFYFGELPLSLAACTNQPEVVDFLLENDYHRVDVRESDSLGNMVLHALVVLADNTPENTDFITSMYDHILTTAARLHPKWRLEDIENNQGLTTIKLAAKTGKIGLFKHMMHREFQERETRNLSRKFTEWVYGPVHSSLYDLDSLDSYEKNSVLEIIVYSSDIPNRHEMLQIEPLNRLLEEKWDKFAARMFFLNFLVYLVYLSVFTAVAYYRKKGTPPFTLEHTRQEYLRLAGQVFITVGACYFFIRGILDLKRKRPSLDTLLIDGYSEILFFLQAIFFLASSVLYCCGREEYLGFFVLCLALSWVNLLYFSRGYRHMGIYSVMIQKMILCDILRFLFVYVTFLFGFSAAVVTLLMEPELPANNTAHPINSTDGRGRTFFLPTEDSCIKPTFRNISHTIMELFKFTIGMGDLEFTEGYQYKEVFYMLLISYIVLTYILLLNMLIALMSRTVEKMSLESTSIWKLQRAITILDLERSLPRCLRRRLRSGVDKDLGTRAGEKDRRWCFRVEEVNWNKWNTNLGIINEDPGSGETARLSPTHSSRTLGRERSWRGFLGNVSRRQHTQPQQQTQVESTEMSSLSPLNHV
Assay: two-electrode voltage-clamp, Xenopus laevis oocytes
Format: cell-based

SMILES: COc1cc(CNC(=O)CCCC/C=C/C(C)C)ccc1O [capsaicin]
- EC50: 10.4 µM
